The text below walks through data of patent US9399047B2, “Composition and method to alleviate joint pain using phospholipids and roe extract” (U.S. NUTRACEUTICALS, LLC, priority 2009, dated 2016).

The conditions of data set [1]: cited from earlier work.
Data set [2] concerns healthy adults. The conditions noted are these: eight weeks, 6 mg per day; cited from earlier work.
Data set [3] concerns inflammatory markers. The conditions noted are these: astaxanthin 1 mg/kg, cited from earlier work.
For data set [4], the system named is rats. The settings on record: cited from earlier work.
The subject of data set [5] is cellular membrane lipid peroxidation. The conditions noted are these: cited from earlier work.
The subject of data set [6] is photo-receptors, ganglion and neuronal cell. The settings on record: cited from earlier work.
For data set [7] the following is noted: 4 mgs/day, compared to untreated subjects; cited from earlier work.
For data set [8] the following is noted: cited from earlier work. The source holds these as a separate data set.
Data set [9] concerns NO, PGE-2 and TNF-Alpha. The conditions noted are these: induced uveitis; cited from earlier work.
For data set [10], the system named is lens epithelial cells. The conditions noted are these: in vitro, umol/L concentrations; cited from earlier work.
In data set [11] the test system is C-Reactive Protein (C-RP). The conditions noted are these: human subjects with high risk levels of C-RP, three months of treatment; cited from earlier work.
The conditions of data set [12]: serum; cited from earlier work.
The conditions of data set [13]: cited from earlier work. The source holds these as a separate data set.
Data set [14] is described as follows: solubility. In kind it is physicochemical. The text has this: It is also possible to use a pure diol of the S,S′ astaxanthin, including a synthetic diol with a surfactant and/or the low molecular weight hyaluronic acid. It is possible to use that pure diol in combination with the EPA rich algae based oil or other fish, roe extract, or plant based oil and/or phospholipid and/or surfactant as described above, and which is admixed with either astaxanthin derived from Haematococcus pluvialis or the free diol form in substantially pure S,S′ enantiomer form. It is possible to add synthetically derived mixed enantiomers of the diol. The diol of the S,S′ astaxanthin is possible because in cases of krill oil and possibly algae based oils and Hp derived and other types, there are principally diesters and monoesters respectively with very little diol, which is insoluble. […] It is possible to synthesize asymmetrically the S,S′ pure diol. Despite the pure diol's poor solubility in some examples, there may be an active transport mechanism related to its bioavailability, or conversely, that only in the diol form is the monoester or diester forms transferred from the intestines to the blood. […]

Consider `CCCCCCCCCCCCCCCC(=O)O[C@H]1CC(C)(C)C(/C=C/C(C)=C/C=C/C(C)=C/C=C/C=C(C)/C=C/C=C(C)/C=C/C2=C(C)C(=O)[C@@H](OC(=O)CCCCCCCCCCCCCCC)CC2(C)C)=C(C)C1=O` [(3R,3′R-astaxanthin dipalmitate, reference compound], for which, in [1] (men, astaxanthin fatty acyl diesters (Coral-Hinostroza et al. 2004)), the “relative absorption of astaxanthin compared to the other two isomers” value was “higher relative absorption”.

`CC1=C(/C=C/C(C)=C/C=C/C(C)=C/C=C/C=C(C)/C=C/C=C(C)/C=C/C2=C(C)C(=O)[C@@H](O)CC2(C)C)C(C)(C)C[C@H](O)C1=O` [Astaxanthin, 3,3′-dihydroxy-β-β-carotene-4,4′-dione]: the “negative effect of supplementation” value in data set [2] is “no negative effect”. Also, in data set [3] (in vitro and in vivo), the “down regulates TNF-alpha production” value is listed as 75%, the “down regulates prostaglandin E-2 production (PGE-2)” value is 75% and the “inhibits nitric oxide synthase (Nos) expression of nitric oxide” value is 58%. Besides, in [3], the “effects on inflammatory markers compared with prednisolone” value was “nearly as effective as prednisolone”. For the same compound, the “Oral LD 50” value in data set [4] (rat, in vivo, po) is 600 mg/kg. In addition, in data set [4] (rats), the NOAEL (commonly the highest dose or exposure tested at which no adverse effect was seen) is reported as 465 mg/kg. The “effect on pro-oxidant activity of Vioxx” value in data set [5] is recorded as “negate the pro-oxidant activity of Vioxx”. Also, in data set [6] (direct measurement of retinal astaxanthin concentrations), the “crossing of the blood-brain-retina barrier” value is “crosses the blood-brain-retina barrier”. Further, the “photon induced damage of photo-receptors, ganglion and neuronal cell damage” value in data set [6] (in vivo) is recorded as “protection”. The “post exercise joint fatigue following strenuous knee exercise” value in [7] was “prevented post exercise joint fatigue”. In data set [8] (versus Vitamin C), the “free radical quenching ability, times more powerful than Vitamin C” value was 65 times. Moreover, the “free radical quenching ability, times more powerful than Vitamin E” value in [8] (versus Vitamin E) is reported as 14 times. Further, the “free radical quenching ability, times more powerful than lutein” value in data set [8] (versus lutein) was 47 times. In addition, the “free radical quenching ability, times more powerful than β-carotene” value in [8] (versus β-carotene) is on record as 54 times. For the same compound, in data set [9], the “ocular anti-inflammatory activity by suppression of NO, PGE-2 and TNF-Alpha” value is “dose dependant ocular anti-inflammatory activity”. The “UVB induced lipid peroxidative mediated cell damage” value in data set [10] is reported as “suppresses”. The “patients whose serum C-RP levels dropped below the risk level” value in data set [11] is 43%. In addition, in data set [12], the Cmax (as a rule, the peak of the concentration-time curve) was 65 µg/L; the T1/2 was 16 h; the Tmax – broadly, the time at which the peak concentration occurs – is 8 h. For the same compound, the “quenching of singlet oxygen, times more powerful than Vitamin E” value in [13] (versus Vitamin E) is given as “about 50 times”. For the same compound, in data set [13] (versus lutein), the “quenching of singlet oxygen, relative to lutein” value is given as “three times more powerful”. Also, in [13] (versus β-carotene), the “quenching of singlet oxygen, times more powerful than β-carotene” value is on record as 11 times.

As for `CC1=C(/C=C/C(C)=C/C=C/C(C)=C/C=C/C=C(C)/C=C/C=C(C)/C=C/C2=C(C)C(=O)[C@@H](O)CC2(C)C)C(C)(C)C[C@H](O)C1=O` [diol of the S,S′ astaxanthin], in data set [14], the solubility result is listed as “insoluble”.

Regarding `CC1=C(/C=C/C(C)=C/C=C/C(C)=C/C=C/C=C(C)/C=C/C=C(C)/C=C/C2=C(C)C(=O)[C@@H](O)CC2(C)C)C(C)(C)C[C@H](O)C1=O` [free astaxanthin diol], the “uptake relative to esterified astaxanthin” value in [1] (human plasma, feeding studies) is reported as 4-5 times.
